The nature of this assay: Effective concentration required for production of cGMP in Chinese hamster ovary cells expressing natriuretic peptide receptor A (NPR-A). It counts as functional, cell-based.

For the compound `CC[C@H](C)[C@@H]1NC(=O)[C@@H](CCCN=C(N)N)NC(=O)[C@H](CC(=O)O)NC(=O)[C@@H](CCSC)NC(=O)[C@H](CCCN=C(N)N)NC(=O)CNC(=O)CNC(=O)[C@@H](Cc2ccccc2)NC(=O)[C@H](Cc2c[nH]cn2)NC(=O)[C@@H](NC(=O)[C@@H](N)CCSC)CSSC[C@H](C(=O)N[C@@H](Cc2ccc(O)cc2)C(=O)N[C@@H](CCCN=C(N)N)C(N)=O)NC(=O)[C@@H](CO)NC1=O` [MiniANP], the 50% effective concentration (EC50) came to 3.1 nM. That is a single-digit nanomolar value.
